# According to PubChem BioAssay AID1963856 (Molecular Pharmacology Branch, DTP, NCI, 2024):
# “And” between values parts separate entries of the source, which are not always exact repeats. Equal values may be shown once. The source made the active and inactive calls. The calls were made as follows: active = viability on the fitted dose curve at most 10% of control; inactive = the rest.
# Tested on: LG0567-F671-PDC KRAS tumor spheroid viability
# Assay: Anticancer human tumor LG0567-F671-PDC patient-derived lung adenocarcinoma cell line growth inhibition [KRAS2]
# Details: spheroids with HUVEC and MSC; for viability, T/C: stronger effect = lower value
# Excerpt: Multicellular complex tumor spheroid response to RAS pathway inhibitors in combination with a targeted agents in patient-derived cell lines with oncogenic KRAS variants from multiple cancer types
# A high-throughput screen of multi-cell type tumor spheroids was designed to identify active combinations of targeted small molecules and KRAS pathway inhibitors. Complex spheroids include a stromal component modeled by human endothelial cells (HUVEC) and fibroblasts modeled by human mesenchymal stem cells (MSCs). The concentration ranges selected for each drug and investigational agent were based upon clinically achievable concentrations if the clinical Cmax of the agent was known.
# Compounds. The drugs and investigational agents: BI-3406 (NSC825286), BAY-293 (NSC824723), batoprotafib (TNO155; NSC825523), sotorasib (AMG 510; NSC818433), MRTX1257 (NSC819558), elimusertib (BAY 1895344; NSC800525), molibresib (GSK525762; NSC774829), temuterkib (LY3214996; NSC803410), venetoclax (NSC766270), alisertib (NSC759677), olaparib (NSC753686), talazoparib (NSC767125), erdafitinib (NSC781556), ipatasertib (NSC767898), cabozantinib (NSC761068), nintedanib (NSC756659), abemaciclib (NSC768073), docetaxel (NSC628503), trametinib (NSC758246), and sapanisertib (NSC764658) were obtained from the National Cancer Institute (NCI) Developmental Therapeutics Program Chemical Repository. The FDA-approved anticancer drug set is available from the Developmental Therapeutics Program. […] The stock solutions were prepared in dimethyl sulfoxide (DMSO, Sigma-Aldrich, St. Louis, MO, cat. D2650) at 800-fold the tested concentration and stored at -70 degrees C prior to their use. All drugs and investigational agents were tested over a range starting from a high concentration at or near the clinical Cmax and decreasing in half-log increments. If the clinical Cmax for an agent had not been determined, the highest concentration tested was 10 microM.
# Cell Culture. All cells were maintained in an incubator at 37 degrees C and 5% CO2 with 95% humidity. The PDC lines were cultured according to standard operating procedures established by the NCI PDMR (https://pdmr.cancer.gov/sops/default.htm). Briefly, all PDCs were thawed and cultured in Matrigel-coated flasks prepared with a working solution of 1X Ham's F-12 nutrient mix, without supplementation (Invitrogen, Waltham, MA, cat. 11765054), 100 U/mL penicillin-streptomycin (Invitrogen, cat. 15140122), and 2.5% Matrigel (Corning Inc., Corning, NY, cat. 354248) for the first three passages. All PDCs were cultured in complete DMEM/F-12 media containing advanced DMEM/F-12 (Invitrogen, cat. 12634028), 4.9% defined fetal bovine serum, heat inactivated (HyClone Laboratories Inc., Logan, UT, cat. SH30070.03HI), 389 ng/mL hydrocortisone (Sigma-Aldrich, cat. H4001), 9.7 ng/mL human EGF recombinant protein (Invitrogen, cat. PHG0313), 23.4 microg/mL adenine (Sigma-Aldrich, cat. A2786), 97.3 U/mL penicillin-streptomycin (Invitrogen, cat. 15140122), 1.9 mM L-glutamine (Invitrogen, cat. 25030081), and 9.7 microM Y-27632 dihydrochloride (Tocris Bioscience, Bristol, United Kingdom, cat. 1254). The PDCs were cultured in complete DMEM/F12 media without 9.7 microM Y-27632 dihydrochloride for at least two passages prior to the screen. The established cell line HOP-62 was cultured in RPMI 1640 medium, HEPES (Invitrogen, cat. 22400105) with 10% defined fetal bovine serum (HyClone Laboratories Inc., cat. SH30070.03) and 2 mM L-glutamine (Invitrogen, cat. 25030081). The pooled donor HUVEC were cultured in endothelial cell growth medium 2 (PromoCell, Heidelberg, Germany, cat. C-22011) and the hMSC were cultured in mesenchymal stem cell growth medium 2 (PromoCell, cat. C-28009). For all experiments, HUVEC and hMSC were used at passages </=5, while the malignant cell lines were used at passages </=15. […]
# [1] = compound alone, run of 07/12/2021
# [2] = compound alone, run of 07/19/2021
# [3] = compound alone, run of 07/26/2021
# 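For IC50 in this document: drug exposure lasted seven days after spheroids formed for three days.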
# 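For viability, T/C in this document: drug exposure lasted seven days after spheroids formed for three days.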
Compound,"viability, T/C (compound 0.1 µM)","viability, T/C (compound 0.316 µM)","viability, T/C (compound 1 µM)","viability, T/C (compound 3.16 µM)","viability, T/C (compound 10 µM)","viability, T/C (compound 0.0316 µM)","viability, T/C (compound 0.01 µM)",IC50 (curve of compound),also measured
C=CC(=O)N1CCN(c2nc(=O)n(-c3c(C)ccnc3C(C)C)c3nc(-c4c(O)cccc4F)c(F)cc23)C(C)C1 (stereo not drawn),25.5% [middle of 17 runs],23.7% [middle of 17 runs],25.1% [middle of 17 runs],24.4% [middle of 17 runs],23.8% [middle of 17 runs],,,,IC50 [1]: < 100 nM; IC50 [2]: < 100 nM; IC50 [3]: < 100 nM
C=CC(=O)N1CCN(c2nc(OCC3CCCN3C)nc3c2CCN(c2cccc4cccc(C)c24)C3)CC1CC#N (stereo not drawn),31.3% [middle of 16 runs],,30.4% [middle of 17 runs],,,35.5% [middle of 17 runs],,,IC50 [1]: < 31.6 nM; IC50 [2]: < 31.6 nM; IC50 [3]: < 31.6 nM
CC(=O)Nc1cccc(-n2c(=O)n(C3CC3)c(=O)c3c(Nc4ccc(I)cc4F)n(C)c(=O)c(C)c32)c1,,,,,,15.6% [middle of 5 runs],38.5% [middle of 5 runs],2.56 nM [middle of 5 runs],"viability, T/C (compound 0.0001 µM): 80.8% [middle of 5 runs]; viability, T/C (compound 0.000316 µM): 63.3% [middle of 5 runs]; viability, T/C (compound 0.001 µM): 55.2% [middle of 5 runs]; viability, T/C (compound 0.00316 µM): 50.8% [middle of 5 runs]"
CC(=O)OC12COC1CC(O)C1(C)C(=O)C(O)C3=C(C)C(OC(=O)C(O)C(NC(=O)OC(C)(C)C)c4ccccc4)CC(O)(C(OC(=O)c4ccccc4)C21)C3(C)C (stereo not drawn),63.3% [middle of 5 runs],63.1% [middle of 5 runs],73.7% [middle of 5 runs],70.1% [middle of 5 runs],,57.6% [middle of 5 runs],67% [middle of 5 runs],,
CC(C)NCC(C(=O)N1CCN(c2ncnc3c2C(C)CC3O)CC1)c1ccc(Cl)cc1 (stereo not drawn),83.4% [middle of 5 runs],65.9% [middle of 5 runs],71.3% [middle of 5 runs],,72.5% [middle of 4 runs],101% [middle of 5 runs],,> 10000 nM and 1170 nM,outcome (compound 10 µM): active
CC(C)n1nc(-c2ccc3oc(N)nc3c2)c2c(N)ncnc21,,,,,,,,,"viability, T/C (compound 0.000316 µM): 98.5% [middle of 5 runs]; viability, T/C (compound 0.001 µM): 89.3% [middle of 5 runs]"
CC1(C)CCC(CN2CCN(c3ccc(C(=O)NS(=O)(=O)c4ccc(NCC5CCOCC5)c([N+](=O)[O-])c4)c(Oc4cnc5[nH]ccc5c4)c3)CC2)=C(c2ccc(Cl)cc2)C1,94.7% [middle of 5 runs],87% [middle of 5 runs],89.9% [middle of 5 runs],45.9% [middle of 5 runs],12.4% [middle of 5 runs],98.2% [middle of 5 runs],,2.84 µM [middle of 5 runs],
CC1COCCN1c1cc(-c2ccnn2C)c2ccnc(-c3ccn[nH]3)c2n1 (stereo not drawn),,74% [middle of 5 runs],,,,,101% [middle of 5 runs],,
CC1OCC2(CCN(c3cnc(Sc4ccnc(N)c4Cl)c(N)n3)CC2)C1N (stereo not drawn),56.3% [middle of 20 runs],38.5% [middle of 20 runs],,21.6% [middle of 20 runs],15.5% [middle of 19 runs],81.9% and 81.1% and 73.7%,,163 nM [middle of 5 runs],IC50 [3]: 134 nM [middle of 6 runs]
CCN1CCN(Cc2ccc(Nc3ncc(F)c(-c4cc(F)c5nc(C)n(C(C)C)c5c4)n3)nc2)CC1,71% [middle of 5 runs],70.9% [middle of 5 runs],65.2% [middle of 5 runs],,,76.9% [middle of 5 runs],93.7% [middle of 5 runs],> 1000 nM,"viability, T/C (compound 0.00316 µM): 97.6% [middle of 5 runs]"
CCNC(=O)CC1N=C(c2ccc(Cl)cc2)c2cc(OC)ccc2-n2c(C)nnc21 (stereo not drawn),103% [middle of 5 runs],80.5% [middle of 5 runs],,,,115% [middle of 5 runs],,,
CN(C)C/C=C/C(=O)Nc1cc2c(Nc3ccc(F)c(Cl)c3)ncnc2cc1O[C@H]1CCOC1,60.7% [middle of 5 runs],,,,,60.4% [middle of 5 runs],72.6% [middle of 5 runs],> 100 nM,"viability, T/C (compound 0.000316 µM): 100% [middle of 5 runs]; viability, T/C (compound 0.001 µM): 90.1% [middle of 5 runs]"
COC(=O)c1ccc2c(C(=Nc3ccc(N(C)C(=O)CN4CCN(C)CC4)cc3)c3ccccc3)c(O)[nH]c2c1,91% [middle of 5 runs],,90.2% [middle of 5 runs],93% [middle of 5 runs],94.1% [middle of 5 runs],,,> 10000 nM,
COc1cc(Nc2ncc3c(n2)-c2ccc(Cl)cc2C(c2c(F)cccc2OC)=NC3)ccc1C(=O)O,,74% [middle of 5 runs],,67.6% [middle of 5 runs],48.9% [middle of 5 runs],92.8% [middle of 5 runs],,,
COc1cc(OC)cc(N(CCNC(C)C)c2ccc3ncc(-c4cnn(C)c4)nc3c2)c1,,92.2% [middle of 5 runs],,,,,,,
COc1cc2nc(C)nc(NC(C)c3cc(N)cc(C(F)(F)F)c3)c2cc1OC1CCOC1 (stereo not drawn),,71.1% [middle of 17 runs],,,,,,,IC50 [1]: > 10000 nM and 2620 nM and 2850 nM; IC50 [2]: > 10000 nM; IC50 [3]: > 10000 nM
COc1cc2nccc(Oc3ccc(NC(=O)C4(C(=O)Nc5ccc(F)cc5)CC4)cc3)c2cc1OC,78.3% [middle of 5 runs],75.1% [middle of 5 runs],67% [middle of 5 runs],,,92% [middle of 5 runs],,> 10000 nM,
Cn1nccc1Nc1nccc(-c2cc3c(s2)C(C)(C)N(CCN2CCOCC2)C3=O)n1,89.5% [middle of 5 runs],74.6% [middle of 5 runs],53.3% [middle of 5 runs],37.5% [middle of 4 runs],30.1% [middle of 5 runs],95.8% [middle of 5 runs],,1.25 µM [middle of 5 runs],
Cn1ncnc1[C@H]1c2n[nH]c(=O)c3cc(F)cc(c23)N[C@@H]1c1ccc(F)cc1,90.9% [middle of 5 runs],,,,,104% [middle of 5 runs],102% [middle of 5 runs],> 100 nM,"viability, T/C (compound 0.000316 µM): 99.5% [middle of 5 runs]; viability, T/C (compound 0.001 µM): 106% [middle of 5 runs]; viability, T/C (compound 0.00316 µM): 101% [middle of 5 runs]"
O=C(c1cc(Cc2n[nH]c(=O)c3ccccc23)ccc1F)N1CCN(C(=O)C2CC2)CC1,99.1% [middle of 5 runs],98.6% [middle of 5 runs],93.1% [middle of 5 runs],93.5% [middle of 5 runs],97.9% [middle of 5 runs],103% [middle of 5 runs],,> 10000 nM,
